{"source": "paper PMC10562414", "about": "“GLP-1R signaling neighborhoods associate with the susceptibility to adverse drug reactions of incretin mimetics” (Nature Communications, 2023)", "key": {"[1]": {"tested_on": "GLP-1R-expressing HEK293 cells + Dyngo-4A (phosphoproteome)", "assay": "Phosphoproteomics, GLP-1R-transfected cells with internalization inhibitor Dyngo-4A, 30 min", "assay_type": "cell-based, human", "settings": "1 μM, 30 min, vs vehicle, n = 3", "procedure": "P values were calculated by a two-sided unpaired t-test.\nHEK293 cells (350,000 cells/mL) were transfected in suspension using 3 μg of linear PEI (MW 25,000) per 1 μg of plasmid DNA and seeded onto poly-D-lysine-coated 60 mm dishes at a density of 1,750,000 cells per dish. After a 24-h incubation, cells were washed twice with PBS and placed in starvation media (DMEM with penicillin/streptomycin). After a 48-h incubation, cells were washed twice with HBSS and maintained in the same buffer. […] Cell extracts were prepared as previously described[64]–[66]. In short, 200 μL of the lysis buffer preheated at 95 °C (4% sodium dodecyl sulfate in 50 mM Tris adjusted to pH 8.5) was added to the cells. The samples were then denatured at 95 °C for 10 min, placed on ice and then sonicated using a probe sonicator (3 sec on, 3 sec off pulse, 1 min, 30% amplitude) (Branson). Lysate protein concentration was determined using the Pierce bicinchoninic acid assay kit (Thermo Fisher Scientific) according to the manufacturer’s instructions. The lysates were reduced using 5 mM dithiothreitol for 1 h at room temperature and alkylated using 15 mM iodoacetamide for 1 h at room temperature in the dark. Proteins were precipitated and digested on beads using MagReSyn Amine magnetic beads (ReSyn Biosciences) according to the manufacturer’s instructions. Protein digestion was conducted overnight at 37 °C with lysyl endopeptidase (LysC, Wako) (1:150 LysC/protein, w/w) and trypsin (1:300 trypsin/protein, w/w). 20% TFA, 2 M glycolic acid in 80% ACN were added to the samples at a 1:1 ratio for phosphopeptide enrichment using MagReSyn TiO2 magnetic beads (ReSyn Biosciences) according to the manufacturer’s instructions. The enriched phosphopeptides were dried overnight in a SpeedVac, resuspended into 5% formic acid (FA), desalted using StageTip (Thermo Fisher Scientific) according to the manufacturer’s instructions and dried in a SpeedVac. The experiment was performed in biological triplicates.\nAll parameters and settings regarding the acquisition of the proteomics data can be found in Supplementary Data 11, 12. For data acquisition, the instrument was set to peptide mode, with a trapping pressure set as low (2mTorr). An EASY-Spray Source (Thermo Fisher Scientific) was used and the column temperature was maintained with the integrated, temperature-controlled heater at 55 °C throughout the experiment. For the data presented in Fig. 5d, the column was heated at 50 °C following the manufacturer’s instructions (IonOpticks).\nAcquired raw files were converted to mzML format by MSConvert (version 3.0.21258)[67] applying peak picking of the mass spectra with the vendor-provided algorithm (Thermo Fisher Scientific). The mzML files were analyzed using the FragPipe GUI v18 for both library and DIA search. […] Trypsin with up to 2 missed cleavages was set as digestion enzyme, oxidation of methionine, acetylation of the N-terminus and phosphorylation on serine, threonine and tyrosine (maximal occurrence was set to three) were set as variable modifications. Carbamidomethylation of cysteine residues was set as a fixed modification. Peptide length was restricted to 7 to 50 amino acids, and 500 to 5000 Da. The precursor tolerance was set to ±20 ppm, fragment mass tolerance to 20 ppm and MSBooster was enabled. The resulting peptide-spectrum matches were adjusted to a 1% false discovery rate with Percolator[69] as part of the Philosopher toolkit (v4.4)[70] and converted to a spectra library. DIA files were analyzed by DIA-NN 1.8.1[71], [72] using the previously generated library and monitor-command mode. Peptide quantification was performed based on the fragment elution profiles from the MS2 level (area under the curve).\nAll further data processing was performed in R (version 4.2.1). Only phosphopeptides with a localization score of at least 0.75 were considered for further analysis. […]"}, "GLP-1R [2]": {"biological_target": "T1, GLP-1R (Homo sapiens, UniProt P43220)", "T1 sequence (P43220 24-463)": "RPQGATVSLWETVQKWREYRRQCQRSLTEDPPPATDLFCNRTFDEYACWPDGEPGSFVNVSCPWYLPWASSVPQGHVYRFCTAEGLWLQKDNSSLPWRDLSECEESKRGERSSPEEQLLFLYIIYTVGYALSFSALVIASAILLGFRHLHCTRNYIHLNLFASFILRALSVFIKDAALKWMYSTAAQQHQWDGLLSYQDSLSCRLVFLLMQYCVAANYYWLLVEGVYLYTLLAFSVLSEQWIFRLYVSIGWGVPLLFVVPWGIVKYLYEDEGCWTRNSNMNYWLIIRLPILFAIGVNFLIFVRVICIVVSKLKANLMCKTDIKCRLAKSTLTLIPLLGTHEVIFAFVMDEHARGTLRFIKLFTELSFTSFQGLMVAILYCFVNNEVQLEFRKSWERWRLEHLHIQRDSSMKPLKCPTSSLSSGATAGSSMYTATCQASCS", "assay": "ebBRET pathway activation (15 pathways) at the Golgi apparatus (tdrGFP-Giantin)", "assay_type": "cell-based", "settings": "for Efficacy (normalized) / Potency (logEC50) / Emax: Golgi apparatus"}, "GLP-1R [3]": {"biological_target": "T1, GLP-1R", "assay": "Hierarchical / k-means / fuzzy clustering of GLP-1R agonist signaling profiles (z-scored Emax and EC50, cluster centers)", "excerpt": "Using ebBRET, we extended our pathway profiling to endosomes, the Golgi apparatus and the endoplasmic reticulum. […] In short, positive k-means cluster centers were indicative of high potency or efficacy in a specific pathway and compartment, whereas negative k-means cluster centers could be interpreted as pathways that were underrepresented or not activated by a given drug cluster (Fig. 6c).\nEfficacy and potency were extracted from concentration-response curves and aggregated before k-means clustering. b Hierarchical clustering of GLP-1R agonists based on signaling neighborhood profiles. c Cluster centers of distinct drug clusters identified by k-means clustering. Defining cluster features are listed by rank order, and the top and bottom five features are highlighted for each cluster.\nrepresented as z-scores. Pathways that were not activated by GLP-1R upon exposure to ligand\naccording to efficacy or potency, compartments, and pathways. Pathways that were not activated\nby any drug were removed for clarity. c, Heatmap and hierarchical clustering of efficacy for 8\ndrugs in 15 pathways and 4 cellular compartments. Data are represented as z-scores."}}, "data": [{"smiles": "N#Cc1ccc(COc2cccc(C3CCN(Cc4nc5ccc(C(=O)O)cc5n4C[C@@H]4CCO4)CC3)n2)c(F)c1", "note": "[Danuglipron]", "values": [{"measurement": "log2.foldchange, PABPN1 S19", "setting": "[1]; Dyngo internalization inhibitor (50 μM, 30 min pre), p 0.975742", "result": 0.005523}, {"measurement": "log2.foldchange, EIF3J S13", "setting": "[1]; Dyngo internalization inhibitor, p 0.0121456 (passed all criteria)", "result": 2}, {"measurement": "log2.foldchange, EIF3J S11;S13", "setting": "[1]; Dyngo internalization inhibitor, p 0.107013", "result": 0.1859}, {"measurement": "log2.foldchange, VPS51 S18", "setting": "[1]; Dyngo internalization inhibitor, p 0.460124", "result": -0.1867}, {"measurement": "log2.foldchange, POLE4 S9;T11", "setting": "[1]; Dyngo internalization inhibitor, p 0.765877", "result": -0.2937}, {"measurement": "Efficacy (normalized)", "setting": "GLP-1R [2]; GRK2/Gβγ", "result": 0}, {"measurement": "Potency (logEC50)", "setting": "GLP-1R [2]; GRK2/Gβγ", "result": 0}, {"measurement": "Emax", "setting": "GLP-1R [2]; GRK/Gβγ", "result": 0}, {"measurement": "Efficacy (normalized)", "setting": "GLP-1R [2]; Gα11", "result": 0}, {"measurement": "Emax", "setting": "GLP-1R [2]; Gα11", "result": 0}, {"measurement": "Potency (logEC50)", "setting": "GLP-1R [2]; Gα11", "result": 0}, {"measurement": "Efficacy (normalized)", "setting": "GLP-1R [2]; Gα12", "result": 0}, {"measurement": "Emax", "setting": "GLP-1R [2]; Gα12", "result": 0}, {"measurement": "Potency (logEC50)", "setting": "GLP-1R [2]; Gα12", "result": 0}, {"measurement": "Efficacy (normalized)", "setting": "GLP-1R [2]; Gα13", "result": 0}, {"measurement": "Emax", "setting": "GLP-1R [2]; Gα13", "result": 0}, {"measurement": "Potency (logEC50)", "setting": "GLP-1R [2]; Gα13", "result": 0}, {"measurement": "Efficacy (normalized)", "setting": "GLP-1R [2]; Gα14", "result": 0}, {"measurement": "Emax", "setting": "GLP-1R [2]; Gα14", "result": 0}, {"measurement": "Potency (logEC50)", "setting": "GLP-1R [2]; Gα14", "result": 0}, {"measurement": "Efficacy (normalized)", "setting": "GLP-1R [2]; Gα15", "result": 0}, {"measurement": "Emax", "setting": "GLP-1R [2]; Gα15", "result": 0}, {"measurement": "Potency (logEC50)", "setting": "GLP-1R [2]; Gα15", "result": 0}, {"measurement": "Efficacy (normalized)", "setting": "GLP-1R [2]; Gαi1", "result": 0}, {"measurement": "Emax", "setting": "GLP-1R [2]; Gαi1", "result": 0}, {"measurement": "Potency (logEC50)", "setting": "GLP-1R [2]; Gαi1", "result": 0}, {"measurement": "Efficacy (normalized)", "setting": "GLP-1R [2]; Gαi2", "result": 0}, {"measurement": "Emax", "setting": "GLP-1R [2]; Gαi2", "result": 0}, {"measurement": "Potency (logEC50)", "setting": "GLP-1R [2]; Gαi2", "result": 0}, {"measurement": "Efficacy (normalized)", "setting": "GLP-1R [2]; Gαi3", "result": 0}, {"measurement": "Emax", "setting": "GLP-1R [2]; Gαi3", "result": 0}, {"measurement": "Potency (logEC50)", "setting": "GLP-1R [2]; Gαi3", "result": 0}, {"measurement": "Efficacy (normalized)", "setting": "GLP-1R [2]; GαoA", "result": 0}, {"measurement": "Emax", "setting": "GLP-1R [2]; GαoA", "result": 0}, {"measurement": "Potency (logEC50)", "setting": "GLP-1R [2]; GαoA", "result": 0}, {"measurement": "Efficacy (normalized)", "setting": "GLP-1R [2]; GαoB", "result": 0}, {"measurement": "Emax", "setting": "GLP-1R [2]; GαoB", "result": 0}, {"measurement": "Potency (logEC50)", "setting": "GLP-1R [2]; GαoB", "result": 0}, {"measurement": "Efficacy (normalized)", "setting": "GLP-1R [2]; Gαq", "result": 0}, {"measurement": "Emax", "setting": "GLP-1R [2]; Gαq", "result": 0}, {"measurement": "Potency (logEC50)", "setting": "GLP-1R [2]; Gαq", "result": 0}, {"measurement": "Efficacy (normalized)", "setting": "GLP-1R [2]; Gαs", "result": 0.8077}, {"measurement": "Emax", "setting": "GLP-1R [2]; Gαs", "result": 0.9498}, {"measurement": "Potency (logEC50)", "setting": "GLP-1R [2]; Gαs", "result": 0.7638}, {"measurement": "Efficacy (normalized)", "setting": "GLP-1R [2]; Gαz", "result": 1}, {"measurement": "Emax", "setting": "GLP-1R [2]; Gαz", "result": 0.06827}, {"measurement": "Potency (logEC50)", "setting": "GLP-1R [2]; Gαz", "result": 0.517}, {"measurement": "Emax", "setting": "GLP-1R [2]; βARR", "result": 0.7121}, {"measurement": "Efficacy (normalized)", "setting": "GLP-1R [2]; βARR2", "result": 0.4942}, {"measurement": "Potency (logEC50)", "setting": "GLP-1R [2]; βARR2", "result": 0.4339}, {"measurement": "mGs recruitment at the Golgi apparatus, in words", "setting": "GLP-1R [2]; Rluc8-mGs, tdrGFP-Giantin, 60 min, n = 3", "result": "induced a strong response at the Golgi apparatus"}, {"measurement": "z-scores", "setting": "GLP-1R [3]", "result": -0.3536}, {"measurement": "drug cluster (hierarchical / k-means)", "setting": "GLP-1R [3]; efficacy and potency, 15 pathways, 4 compartments", "result": 4}, {"measurement": "defining cluster features, in words", "setting": "GLP-1R [3]; k-means cluster centers", "result": "endoplasmic reticulum-localized recruitment of mGs and decreased recruitment of βARR at the plasma membrane"}]}]}
